Values quoted from earlier work, collected in patent US20080249137A1, “PPAR active compounds” (priority 2005, published 2008).

Legend:
PPARδ = target: T1, PPARδ (Homo sapiens, UniProt Q03181)
T1 sequence (Q03181 1-441): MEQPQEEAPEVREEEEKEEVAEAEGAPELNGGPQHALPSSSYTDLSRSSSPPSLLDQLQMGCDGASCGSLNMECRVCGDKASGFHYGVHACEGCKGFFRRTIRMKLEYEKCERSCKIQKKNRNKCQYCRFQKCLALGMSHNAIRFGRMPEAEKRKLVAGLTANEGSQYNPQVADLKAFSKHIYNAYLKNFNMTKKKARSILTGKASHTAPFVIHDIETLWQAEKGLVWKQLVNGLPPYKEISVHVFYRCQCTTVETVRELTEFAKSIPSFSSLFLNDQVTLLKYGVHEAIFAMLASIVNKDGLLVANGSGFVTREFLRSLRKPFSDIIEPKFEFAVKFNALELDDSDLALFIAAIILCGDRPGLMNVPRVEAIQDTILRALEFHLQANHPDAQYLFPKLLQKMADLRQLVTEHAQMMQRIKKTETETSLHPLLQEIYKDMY

murine PPARα = target: T2, murine PPARα (Mus musculus, UniProt P23204)
T2 sequence (P23204 1-468): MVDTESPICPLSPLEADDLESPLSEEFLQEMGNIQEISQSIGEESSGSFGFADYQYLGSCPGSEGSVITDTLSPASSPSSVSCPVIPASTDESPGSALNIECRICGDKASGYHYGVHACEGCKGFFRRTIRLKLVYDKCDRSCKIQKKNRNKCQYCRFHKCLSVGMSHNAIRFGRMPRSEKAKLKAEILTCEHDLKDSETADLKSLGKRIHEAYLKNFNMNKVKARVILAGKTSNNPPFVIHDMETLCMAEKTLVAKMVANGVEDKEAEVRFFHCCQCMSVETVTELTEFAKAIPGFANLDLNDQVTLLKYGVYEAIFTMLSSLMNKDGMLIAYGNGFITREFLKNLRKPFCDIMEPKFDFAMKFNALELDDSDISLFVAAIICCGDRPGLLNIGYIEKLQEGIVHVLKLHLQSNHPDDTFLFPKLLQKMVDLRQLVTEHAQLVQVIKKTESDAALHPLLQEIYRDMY

[1] = patients, large prospective trial

Row | Compound | agonist selectivity for PPARδ over PPARγ (PPARδ) | activity on murine PPARα (murine PPARα) | reduction in cardiovascular events or death [1] [%]
1 | CCCc1c(OCCCOc2ccc(OCC(=O)O)cc2)ccc(C(C)=O)c1O [Compound L-165041] | approximately 30 fold | inactive | –
2 | Cc1ccc(C)c(OCCCC(C)(C)C(=O)O)c1 [gemfibrozil] | – | – | 22
